Source: patent publication US10183938B2, “Geminal substituted quinuclidine amide compounds as agonists of α-7 nicotonic acetylcholine receptors” (AXOVANT SCIENCES GMBH, priority 2014, dated 2019)
Structures can show the parent of a compound that is named as a salt. Where two headings read alike, the source gives them in different places.

How the values were obtained:
[1] = target: human α7 nAChRs transiently expressed in Xenopus laevis oocytes (Homo sapiens (Human), UniProt P36544); assay: Oocyte electrophysiology screen (TEVC); assay type: cell-based; settings: 0.01 mM test compound, peak current relative to 0.2 mM ACh
Summary of the method: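 Oocytes expressing human α7 were clamped at −80 mV by TEVC. After a 0.2 mM ACh control pulse, test compound was applied at 0.01 mM for 30 s. Agonist response is peak current as % of the ACh response, in triplicate.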

[2] = target: human 5-HT3 serotonin receptors (Homo sapiens (Human), UniProt P46098); assay: [3H]BRL 43694 competition binding
[3] = CHO cell membranes, [3H]BRL 43694, Cheng Prusoff, read-out: h-5HT3 Ki

human 5-HT3 serotonin receptors, sequence (P46098 24-478): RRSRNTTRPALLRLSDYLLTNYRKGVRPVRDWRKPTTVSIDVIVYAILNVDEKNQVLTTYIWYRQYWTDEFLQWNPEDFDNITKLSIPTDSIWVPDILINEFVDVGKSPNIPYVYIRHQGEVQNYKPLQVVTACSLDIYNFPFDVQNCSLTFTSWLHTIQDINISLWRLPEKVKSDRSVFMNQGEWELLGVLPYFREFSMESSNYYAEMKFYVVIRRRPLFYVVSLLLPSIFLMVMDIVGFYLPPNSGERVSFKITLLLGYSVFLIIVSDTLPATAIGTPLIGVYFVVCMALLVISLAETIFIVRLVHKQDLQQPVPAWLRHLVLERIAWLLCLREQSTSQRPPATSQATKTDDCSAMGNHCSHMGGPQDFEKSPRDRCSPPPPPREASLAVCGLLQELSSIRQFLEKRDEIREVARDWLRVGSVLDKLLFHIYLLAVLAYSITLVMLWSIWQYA
human α7 nAChRs transiently expressed in Xenopus laevis oocytes, sequence (P36544 23-502 limits assumed): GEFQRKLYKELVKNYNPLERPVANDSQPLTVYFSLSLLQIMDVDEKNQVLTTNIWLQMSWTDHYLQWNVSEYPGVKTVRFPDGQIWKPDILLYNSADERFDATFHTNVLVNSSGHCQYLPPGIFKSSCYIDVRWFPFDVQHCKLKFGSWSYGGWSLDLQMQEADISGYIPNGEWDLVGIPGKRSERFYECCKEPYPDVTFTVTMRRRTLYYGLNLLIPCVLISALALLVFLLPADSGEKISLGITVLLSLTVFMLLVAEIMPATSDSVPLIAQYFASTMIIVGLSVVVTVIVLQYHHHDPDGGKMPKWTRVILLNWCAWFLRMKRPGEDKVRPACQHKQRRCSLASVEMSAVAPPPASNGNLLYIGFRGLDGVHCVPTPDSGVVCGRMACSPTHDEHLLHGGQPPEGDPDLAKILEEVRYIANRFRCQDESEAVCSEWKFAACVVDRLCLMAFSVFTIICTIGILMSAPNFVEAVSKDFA

Row | Compound | % ACh @ 10 μM Oocyte [1] [% ACh] | Ki [2, 3] [nM] | Ki [2] [nM]
1 | O=C(N[C@@H]1C2CCN(CC2)C12CC2)c1ccc2oc(Cl)cc2c1 [(R)-92, (R)-2-chloro-N-(1′-azaspiro[cyclopropane-1,2′-bicyclo[2.2.2]octan]-3′-yl)benzofuran-5-carboxamide hydrochloride] | 532 | > 10000 | –
2 | CC1(C)[C@H](NC(=O)c2cc3ccoc3cn2)C2CCN1CC2 [(R)-22, (R)—N-(2,2-dimethylquinuclidin-3-yl)furo[2,3-c]pyridine-5-carboxamide hydrochloride] | 456 | 6500 | –
3 | CC1(C)[C@H](NC(=O)c2cc3cc(C4CC4)ccc3s2)C2CCN1CC2 [(R)-19, (R)-5-cyclopropyl-N-(2,2-dimethylquinuclidin-3-yl)benzo[b]thiophene-2-carboxamide hydrochloride] | 149 | 1600 | –
4 | O=C(N[C@@H]1C2CCN(CC2)C12CC2)c1cc2ccc(Cl)c(Cl)c2s1 [(R)-150, (R)-6,7-dichloro-N-(1′-azaspiro[cyclopropane-1,2′-bicyclo[2.2.2]octan]-3′-yl)benzo[b]thiophene-2-carboxamide hydrochloride] | 443 | 2200 | –
5 | O=C(N[C@@H]1C2CCN(CC2)C12CC2)c1ccc2cc[nH]c2c1 [(R)-79, (R)—N-(1′-azaspiro[cyclopropane-1,2′-bicyclo[2.2.2]octan]-3′-yl)-1H-indole-6-carboxamide] | 758 | 750 | –
6 | O=C(N[C@@H]1C2CCN(CC2)C12CC2)c1cc2ccc(F)c(Cl)c2s1 [(R)-158, (R)-7-chloro-6-fluoro-N-(1′-azaspiro[cyclopropane-1,2′-bicyclo[2.2.2]octan]-3′-yl)benzo[b]thiophene-2-carboxamide hydrochloride] | 180 | 370 | –
7 | O=C(N[C@@H]1C2CCN(CC2)C12CC2)c1cc2ccc(Br)cc2s1 [(R)-101, (R)-6-bromo-N-(1′-azaspiro[cyclopropane-1,2′-bicyclo[2.2.2]octan]-3′-yl)benzo[b]thiophene-2-carboxamide hydrochloride] | 412 | > 10000 | –
8 | O=C(NC1C2CCN(CC2)C12CC2)c1cc2cccc(Cl)c2s1 (single isomer, unassigned; enantiomer1) [56a, 7-chloro-N-(1′-azaspiro[cyclopropane-1,2′-bicyclo[2.2.2]octan]-3′-yl)benzo[b]thiophene-2-carboxamide-enantiomer1] | 1231 | – | 48
9 | O=C(N[C@@H]1C2CCN(CC2)C12CC2)c1ccc2occc2c1 [(R)-59, (R)—N-(1′-azaspiro[cyclopropane-1,2′-bicyclo[2.2.2]octan]-3′-yl)benzofuran-5-carboxamide hydrochloride] | 374 | 6800 | –
10 | O=C(N[C@@H]1C2CCN(CC2)C12CC2)c1cc2ccc(C3CC3)c(F)c2s1 [(R)-159, (R)-6-cyclopropyl-7-fluoro-N-(1′-azaspiro[cyclopropane-1,2′-bicyclo[2.2.2]octan]-3′-yl)benzo[b]thiophene-2-carboxamide hydrochloride] | 24 | > 10000 | –
11 | CC1(C)[C@H](NC(=O)c2cc3ccc(F)cc3s2)C2CCN1CC2 [(R)-8, (R)—N-(2,2-dimethylquinuclidin-3-yl)-6-fluorobenzo[b]thiophene-2-carboxamide hydrochloride] | 480 | 6500 | –
12 | COc1cccc2cc(C(=O)N[C@@H]3C4CCN(CC4)C3(C)C)sc12 [(R)-116, (R)—N-(2,2-dimethylquinuclidin-3-yl)-7-methoxybenzo[b]thiophene-2-carboxamide hydrochloride] | 963 | 600 | –
13 | O=C(N[C@@H]1C2CCN(CC2)C12CC2)c1cc2ccc(Cl)c(F)c2s1 [(R)-151, (R)-6-chloro-7-fluoro-N-(1′-azaspiro[cyclopropane-1,2′-bicyclo[2.2.2]octan]-3′-yl)benzo[b]thiophene-2-carboxamide hydrochloride] | 409 | > 10000 | –
14 | O=C(NC1C2CCN(CC2)C12CC2)c1cc2cc(F)ccc2s1 (single isomer, unassigned; enantiomer1) [64a, 5-fluoro-N-(1′-azaspiro[cyclopropane-1,2′-bicyclo[2.2.2]octan]-3′-yl)benzo[b]thiophene-2-carboxamide-enantiomer1] | 511 | – | 420
15 | COc1ccc2cc(C(=O)N[C@@H]3C4CCN(CC4)C34CC4)sc2c1F [(R)-155, (R)-7-fluoro-6-methoxy-N-(1′-azaspiro[cyclopropane-1,2′-bicyclo[2.2.2]octan]-3′-yl)benzo[b]thiophene-2-carboxamide hydrochloride] | 513 | > 10000 | –
16 | Cc1nc2ccc(C(=O)N[C@@H]3C4CCN(CC4)C34CC4)cc2o1 [(R)-86, (R)-2-methyl-N-(1′-azaspiro[cyclopropane-1,2′-bicyclo[2.2.2]octan]-3′-yl)benzo[d]oxazole-6-carboxamide] | 67 | > 10000 | –

Row | Compound | % ACh @ 10 μM Oocyte [1] [% ACh] | Ki [2, 3] [nM] | Ki [2] [nM]
17 | CC1(C)[C@H](NC(=O)c2cnc3occc3c2)C2CCN1CC2 [(R)-36, (R)—N-(2,2-dimethylquinuclidin-3-yl)furo[2,3-b]pyridine-5-carboxamide hydrochloride] | 1 | > 10000 | –
18 | CC1(C)[C@H](NC(=O)c2ccc3occc3c2)C2CCN1CC2 [(R)-6, (R)—N-(2,2-dimethylquinuclidin-3-yl)benzofuran-5-carboxamide hydrochloride] | 374 | > 10000 | –
19 | Cc1ccc2cc(C(=O)N[C@@H]3C4CCN(CC4)C3(C)C)sc2c1Cl [(R)-52, (R)-7-chloro-N-(2,2-dimethylquinuclidin-3-yl)-6-methylbenzo[b]thiophene-2-carboxamide hydrochloride] | 844 | 640 | –
20 | CC1(C)[C@H](NC(=O)c2cc3cc(F)ccc3s2)C2CCN1CC2 [(R)-11, (R)—N-(2,2-dimethylquinuclidin-3-yl)-5-fluorobenzo[b]thiophene-2-carboxamide hydrochloride] | 552 | 1700 | –
21 | CC1(C)[C@H](NC(=O)c2cc3cc(Cl)ccc3s2)C2CCN1CC2 [(R)-13, (R)-5-chloro-N-(2,2-dimethylquinuclidin-3-yl)benzo[b]thiophene-2-carboxamide hydrochloride] | 132 | 2100 | –
22 | O=C(N[C@@H]1C2CCN(CC2)C12CC2)c1ccc2sccc2c1 [(R)-83, (R)—N-(1′-azaspiro[cyclopropane-1,2′-bicyclo[2.2.2]octan]-3′-yl)benzo[b]thiophene-5-carboxamide hydrochloride] | 558 | 2400 | –
23 | CC1(C)[C@H](NC(=O)c2cc3cc(Cl)c(Cl)cc3s2)C2CCN1CC2 [(R)-14, (R)-5,6-dichloro-N-(2,2-dimethylquinuclidin-3-yl)benzo[b]thiophene-2-carboxamide hydrochloride] | 3 | > 10000 | –
24 | COc1ccc2cc(C(=O)N[C@@H]3C4CCN(CC4)C3(C)C)sc2c1F [(R)-51, (R)—N-(2,2-dimethylquinuclidin-3-yl)-7-fluoro-6-methoxybenzo[b]thiophene-2-carboxamide hydrochloride] | 326 | > 10000 | –
25 | CC1(C)[C@H](NC(=O)c2cc3ccsc3cn2)C2CCN1CC2 [(R)-43, (R)—N-(2,2-dimethylquinuclidin-3-yl)thieno[2,3-c]pyridine-5-carboxamide hydrochloride] | 951 | 1500 | –
26 | COc1cccc2cc(C(=O)N[C@@H]3C4CCN(CC4)C34CC4)sc12 [(R)-161, (R)-7-methoxy-N-(1′-azaspiro[cyclopropane-1,2′-bicyclo[2.2.2]octan]-3′-yl)benzo[b]thiophene-2-carboxamide hydrochloride] | 493 | 660 | –
27 | CC1(C)[C@H](NC(=O)c2cc3ccc(Cl)c(Cl)c3s2)C2CCN1CC2 [(R)-109, (R)-6,7-dichloro-N-(2,2-dimethylquinuclidin-3-yl)benzo[b]thiophene-2-carboxamide hydrochloride] | 432 | 4000 | –
28 | CC1(C)[C@H](NC(=O)c2cc3cccc(C(F)(F)F)c3s2)C2CCN1CC2 [(R)-7, (R)—N-(2,2-dimethylquinuclidin-3-yl)-7-(trifluoromethyl)benzo[b]thiophene-2-carboxamide hydrochloride] | 466 | 3400 | –
29 | CC1(C)[C@H](NC(=O)c2cc3ccc(Br)cc3s2)C2CCN1CC2 [(R)-46, (R)-6-bromo-N-(2,2-dimethylquinuclidin-3-yl)benzo[b]thiophene-2-carboxamide hydrochloride] | 301 | > 10000 | –
30 | O=C(N[C@@H]1C2CCN(CC2)C12CC2)c1cc2ccc(C3CCOCC3)cc2s1 [(R)-105, (R)—N-(1′-azaspiro[cyclopropane-1,2′-bicyclo[2.2.2]octan]-3′-yl)-6-(tetrahydro-2H-pyran-4-yl)benzo[b]thiophene-2-carboxamide hydrochloride] | 2 | > 10000 | –
31 | Cn1cnc2cc(C(=O)N[C@@H]3C4CCN(CC4)C34CC4)ccc21 [(R)-95, (R)-1-methyl-N-(1′-azaspiro[cyclopropane-1,2′-bicyclo[2.2.2]octan]-3′-yl)-1H-benzo[d]imidazole-5-carboxamide hydrochloride] | 0 | > 10000 | –
32 | Cc1ccc2cc(C(=O)N[C@@H]3C4CCN(CC4)C34CC4)sc2c1F [(R)-106, (R)-7-fluoro-6-methyl-N-(1′-azaspiro[cyclopropane-1,2′-bicyclo[2.2.2]octan]-3′-yl)benzo[b]thiophene-2-carboxamide hydrochloride] | 572 | > 10000 | –
